Results taken from patent US20230098995A1 (SYNGENTA CROP PROTECTION AG, priority 2020, published 2023).

These compounds were tested on Corynespora cassiicola (assay: Corynespora cassiicola liquid culture growth inhibition (microtiter plate, PDB)). Details: photometric at 620 nm after 3-4 days at 24 C, compared to untreated control.
Assay type: cell-based
Experimental: Conidia of the fungus from cryogenic storage were directly mixed into nutrient broth (PDB potato dextrose broth). A DMSO solution of the test compounds was placed into a microtiter plate (96-well format) and the nutrient broth containing the fungal spores was added to it. The test plates were incubated at 24 C and the inhibition of growth (% control of Corynespora cassiicola) was determined photometrically after 3-4 days at 620 nm. The activity of a compound is derived by comparing the inhibition of growth in the treated test solution to the growth in the untreated check. The concentration of the compounds was 6.7, 2.2, 0.74, 0.25, 0.082 and 0.027 ppm.
CC(C)CC(C)(Cc1ccccc1)NC(=O)c1cnc2c(F)cccc2c1 (centres unmarked) [Compound 2] gave an inhibition at 6.7 ppm of no less than 70%. With C=C(Cl)CC(C)(Cc1ccccc1)NC(=O)c1cnc2c(F)cccc2c1 (centres unmarked) [Compound 4] the inhibition at 6.7 ppm was no less than 70%. Compound CC(C)CC(C)(Cc1cccc(F)c1)NC(=O)c1cnc2c(F)cccc2c1 (centres unmarked) [Compound 6] has an inhibition at 6.7 ppm of no less than 70%. For CC(C)C[C@](C)(Cc1ccccc1)NC(=O)c1cnc2c(F)cccc2c1 [Compound 9], the inhibition at 6.7 ppm was no less than 70%. C[C@](Cc1ccccc1)(CC(F)(F)F)NC(=O)c1cnc2c(F)cccc2c1 [Compound 11] gave an inhibition at 6.7 ppm of no less than 70%. In the case of C[C@@](Cc1ccccc1)(CC(F)(F)F)NC(=O)c1cnc2c(F)cccc2c1 [Compound 12], the inhibition at 6.7 ppm is reported as no less than 70%. C=C(Cl)C[C@](C)(Cc1ccccc1)NC(=O)c1cnc2c(F)cccc2c1 [Compound 13] was tested, and the inhibition at 6.7 ppm was no less than 70%. With CC(C)C[C@@](C)(Cc1ccccc1)NC(=O)c1cnc2c(F)c(F)ccc2c1 [Compound 16] the inhibition at 6.7 ppm was no less than 70%.
